# In patent US20070202079A1, “Therapeutic compositions and methods useful in modulating protein tyrosine phosphatases” (priority 2006, published 2007):
# Columns and labels:
# TF-1 cells = test: TF-1 cell proliferation assay; format: cell-based, human; details: 50 μg/ml
# Protocol: The murine hematopoietic cell line Baf3 was maintained in RPMI 1640 medium supplemented with 10% fetal calf serum (FCS) and murine IL-3 (20 units/ml) as described previously in Damen et al., J. Biol. Chem. 270, 23402 (1995). Human myeloid cell line TF-1 was maintained in RPMI 1640 supplemented with 10% FCS and 40 ng/ml of recombinant human GM-CSF as described previously in Thomassen et al., Clin. Immunol. 95, 85 (2000). For cell proliferation assays, cells were washed in 10% FCS medium twice, resuspended in 10% FCS medium, incubated at 37° C. for 16 hours, and then cultured at 37° C. in 10% FCS medium containing various amounts of cytokines, sodium stibogluconate, or potassium antimonyl tartrate for 3-6 days as indicated. The cell numbers in proliferation assays were determined by an MTT assay or by microscopic cell counting as indicated.
# NB4 cells = test: NB4 differentiation (NBT reduction, CD11b); format: cell-based, human; details: 6 days with drug, washed, 6 days without
# Protocol: Differentiation of AML cell lines was assessed by their ability to produce superoxide as measured by reduction of NBT to formazan and by analysis of expression of CD11b surface marker by flow cytometry. For NBT reduction, each cell suspension was mixed with an equal volume of solution containing 1 mg/ml of NBT (Sigma) and 2.5 μg/ml of TPA for 30 minutes at 37° C. After incubation, cells containing the purple formazan deposits and cells devoid of NBT-reducing activity (white cells) in each sample were determined by counting 200 cells under microscope. Data is expressed as a percentage based on the following ratio: purple cells/purple+white cells. For analysis of cell surface antigens, cells were exposed to phycoerythrin (PE)-conjugated murine anti-human CD11b (DAKO Corp., Carpinteria, Calif.). Analysis of fluorescence was performed on a FACScan flow cytometer (Beckton Dickinson, Mountain View, Calif.).
compound,measurement,setting,value
O.O.O.O.O.O.O.O.O.O=C([O-])[C@@H]1[O][Sb]2([O-])([O][Sb]34([OH])[O][C@H]([C@H](O)CO)[C@H]([O]3)[C@H](C(=O)[O-])[O]4)[O][C@H]([C@H](O)CO)[C@@H]1[O]2.[Na+].[Na+].[Na+] [sodium stibogluconate],GM-CSF-induced proliferation of TF-1 cells,TF-1 cells; GM-CSF 5-40 ng/ml,augmented
same,growth inhibition activity of IFN-alpha on TF-1 cells in presence of drug,TF-1 cells; with GM-CSF and IFN-alpha,enhanced
same,reversal of NB4 differentiation after drug removal,NB4 cells,not reversed
